Assay results reported in the CheMixHub ionic liquid set.

Assay: xn = mol fraction of the nth substance listed
Details: 100 kPa

CCCCCCCC[n+]1ccccc1.[Br-] + CC(C)C[C@H](NC(=O)CN)C(=O)O + O
Details	electrical conductivity [S/m]
288.15 K, x2 = 0.0008948, x1 = 0.005958	1.18
288.15 K, x2 = 0.0008949, x1 = 0.005845	1.16
288.15 K, x2 = 0.0008952, x1 = 0.005555	1.12
288.15 K, x2 = 0.0008955, x1 = 0.005223	1.08
288.15 K, x2 = 0.0008958, x1 = 0.004874	1.04
288.15 K, x2 = 0.0008961, x1 = 0.00451	0.998
288.15 K, x2 = 0.0008965, x1 = 0.00409	0.947
288.15 K, x2 = 0.0008969, x1 = 0.003625	0.867
288.15 K, x2 = 0.0008973, x1 = 0.003174	0.789
288.15 K, x2 = 0.0008978, x1 = 0.002616	0.679
288.15 K, x2 = 0.0008984, x1 = 0.002001	0.558
288.15 K, x2 = 0.0008987, x1 = 0.001608	0.469
288.15 K, x2 = 0.0008991, x1 = 0.001214	0.381
288.15 K, x2 = 0.0008996, x1 = 0.0007137	0.253
288.15 K, x2 = 0.001788, x1 = 0.005808	1.12
288.15 K, x2 = 0.001789, x1 = 0.005199	1.05
288.15 K, x2 = 0.001789, x1 = 0.005515	1.09
288.15 K, x2 = 0.00179, x1 = 0.004871	1.01
288.15 K, x2 = 0.001791, x1 = 0.00409	0.911
288.15 K, x2 = 0.001791, x1 = 0.004503	0.962
288.15 K, x2 = 0.001792, x1 = 0.003639	0.855
288.15 K, x2 = 0.001793, x1 = 0.003149	0.766
288.15 K, x2 = 0.001794, x1 = 0.002603	0.666
288.15 K, x2 = 0.001795, x1 = 0.002003	0.545
288.15 K, x2 = 0.001796, x1 = 0.001632	0.462
288.15 K, x2 = 0.001797, x1 = 0.0008258	0.273
288.15 K, x2 = 0.001797, x1 = 0.001246	0.37
293.15 K, x2 = 0.0008948, x1 = 0.005956	1.31
293.15 K, x2 = 0.0008949, x1 = 0.005843	1.3
293.15 K, x2 = 0.0008952, x1 = 0.005554	1.27
293.15 K, x2 = 0.0008955, x1 = 0.005223	1.22
293.15 K, x2 = 0.0008958, x1 = 0.004874	1.17
293.15 K, x2 = 0.0008961, x1 = 0.004508	1.12
293.15 K, x2 = 0.0008965, x1 = 0.004089	1.06
293.15 K, x2 = 0.0008969, x1 = 0.003623	0.983
293.15 K, x2 = 0.0008973, x1 = 0.003174	0.894
293.15 K, x2 = 0.0008978, x1 = 0.002616	0.781
293.15 K, x2 = 0.0008984, x1 = 0.002001	0.632
293.15 K, x2 = 0.0008987, x1 = 0.001608	0.526
293.15 K, x2 = 0.0008991, x1 = 0.001214	0.427
293.15 K, x2 = 0.0008996, x1 = 0.0007137	0.283
293.15 K, x2 = 0.001788, x1 = 0.005807	1.28
293.15 K, x2 = 0.001789, x1 = 0.005198	1.19
293.15 K, x2 = 0.001789, x1 = 0.005513	1.24
293.15 K, x2 = 0.00179, x1 = 0.004869	1.14
293.15 K, x2 = 0.001791, x1 = 0.00409	1.04
293.15 K, x2 = 0.001791, x1 = 0.004503	1.1
293.15 K, x2 = 0.001792, x1 = 0.003637	0.959
293.15 K, x2 = 0.001793, x1 = 0.003149	0.869
293.15 K, x2 = 0.001794, x1 = 0.002603	0.756
293.15 K, x2 = 0.001795, x1 = 0.002003	0.615
293.15 K, x2 = 0.001796, x1 = 0.001632	0.523
293.15 K, x2 = 0.001797, x1 = 0.0008258	0.306
293.15 K, x2 = 0.001797, x1 = 0.001246	0.419
298.15 K, x2 = 0.0008948, x1 = 0.005954	1.49
298.15 K, x2 = 0.0008949, x1 = 0.005843	1.48
298.15 K, x2 = 0.0008952, x1 = 0.005554	1.44
298.15 K, x2 = 0.0008955, x1 = 0.005221	1.38
298.15 K, x2 = 0.0008958, x1 = 0.004872	1.34
298.15 K, x2 = 0.0008961, x1 = 0.004508	1.29
298.15 K, x2 = 0.0008965, x1 = 0.004089	1.21
298.15 K, x2 = 0.0008969, x1 = 0.003623	1.12
298.15 K, x2 = 0.0008973, x1 = 0.003174	1.02
298.15 K, x2 = 0.0008978, x1 = 0.002616	0.883
298.15 K, x2 = 0.0008984, x1 = 0.002001	0.72
298.15 K, x2 = 0.0008987, x1 = 0.001608	0.604
298.15 K, x2 = 0.0008991, x1 = 0.001214	0.48
298.15 K, x2 = 0.0008996, x1 = 0.0007137	0.314
298.15 K, x2 = 0.001788, x1 = 0.005807	1.46
298.15 K, x2 = 0.001789, x1 = 0.005198	1.36
298.15 K, x2 = 0.001789, x1 = 0.005513	1.41
298.15 K, x2 = 0.00179, x1 = 0.004869	1.31
298.15 K, x2 = 0.001791, x1 = 0.004088	1.17
298.15 K, x2 = 0.001791, x1 = 0.004501	1.25
298.15 K, x2 = 0.001792, x1 = 0.003637	1.09
298.15 K, x2 = 0.001793, x1 = 0.003149	0.978
298.15 K, x2 = 0.001794, x1 = 0.002603	0.849
298.15 K, x2 = 0.001795, x1 = 0.002003	0.689
298.15 K, x2 = 0.001796, x1 = 0.001632	0.585
298.15 K, x2 = 0.001797, x1 = 0.0008258	0.341
298.15 K, x2 = 0.001797, x1 = 0.001246	0.469
303.15 K, x2 = 0.0008948, x1 = 0.005952	1.67
303.15 K, x2 = 0.0008949, x1 = 0.005839	1.65
303.15 K, x2 = 0.0008952, x1 = 0.00555	1.6
303.15 K, x2 = 0.0008955, x1 = 0.005219	1.54
303.15 K, x2 = 0.0008958, x1 = 0.00487	1.49
303.15 K, x2 = 0.0008961, x1 = 0.004507	1.43
303.15 K, x2 = 0.0008965, x1 = 0.004087	1.34
303.15 K, x2 = 0.0008969, x1 = 0.003621	1.24
303.15 K, x2 = 0.0008973, x1 = 0.003172	1.12
303.15 K, x2 = 0.0008978, x1 = 0.002616	0.97
303.15 K, x2 = 0.0008984, x1 = 0.001999	0.789
303.15 K, x2 = 0.0008987, x1 = 0.001608	0.66
303.15 K, x2 = 0.0008991, x1 = 0.001214	0.531
303.15 K, x2 = 0.0008996, x1 = 0.0007137	0.347
303.15 K, x2 = 0.001789, x1 = 0.005196	1.52
303.15 K, x2 = 0.001789, x1 = 0.005509	1.58
303.15 K, x2 = 0.00179, x1 = 0.004867	1.46
303.15 K, x2 = 0.001791, x1 = 0.004088	1.31
303.15 K, x2 = 0.001791, x1 = 0.004501	1.4
303.15 K, x2 = 0.001792, x1 = 0.003637	1.21
303.15 K, x2 = 0.001793, x1 = 0.003148	1.09
303.15 K, x2 = 0.001794, x1 = 0.002601	0.944
303.15 K, x2 = 0.001795, x1 = 0.002003	0.768
303.15 K, x2 = 0.001796, x1 = 0.001632	0.65
303.15 K, x2 = 0.001797, x1 = 0.0008258	0.377
303.15 K, x2 = 0.001797, x1 = 0.001246	0.521
308.15 K, x2 = 0.0008948, x1 = 0.005949	1.85
308.15 K, x2 = 0.0008949, x1 = 0.005837	1.83
308.15 K, x2 = 0.0008952, x1 = 0.005548	1.78
308.15 K, x2 = 0.0008955, x1 = 0.005217	1.71
308.15 K, x2 = 0.0008958, x1 = 0.004868	1.65
308.15 K, x2 = 0.0008961, x1 = 0.004505	1.57
308.15 K, x2 = 0.0008965, x1 = 0.004085	1.49
308.15 K, x2 = 0.0008969, x1 = 0.003621	1.36
308.15 K, x2 = 0.0008973, x1 = 0.003172	1.23
308.15 K, x2 = 0.0008978, x1 = 0.002614	1.06
308.15 K, x2 = 0.0008984, x1 = 0.001999	0.852
308.15 K, x2 = 0.0008987, x1 = 0.001608	0.718
308.15 K, x2 = 0.0008991, x1 = 0.001214	0.577
308.15 K, x2 = 0.0008996, x1 = 0.0007137	0.379
308.15 K, x2 = 0.001789, x1 = 0.005194	1.69
308.15 K, x2 = 0.001789, x1 = 0.005508	1.75
308.15 K, x2 = 0.00179, x1 = 0.004866	1.63
308.15 K, x2 = 0.001791, x1 = 0.004086	1.46
308.15 K, x2 = 0.001791, x1 = 0.004499	1.55
308.15 K, x2 = 0.001792, x1 = 0.003635	1.33
308.15 K, x2 = 0.001793, x1 = 0.003148	1.21
308.15 K, x2 = 0.001794, x1 = 0.002601	1.04
308.15 K, x2 = 0.001795, x1 = 0.002003	0.843
308.15 K, x2 = 0.001796, x1 = 0.00163	0.713
308.15 K, x2 = 0.001797, x1 = 0.0008258	0.415
308.15 K, x2 = 0.001797, x1 = 0.001246	0.576

CCCCCCCCCCCCOS(=O)(=O)[O-].[Na+] + CC(C)O + O
298 K, frequency 0.001 MHz
Details	electrical conductivity [S/m]
x2 = 0.04868, x3 = 0.9512	0.0308
x2 = 0.1358, x3 = 0.8641	0.0155
